What all share (experiment): NCI tumour cell line growth inhibition, 48 h
Assay [1] deals with CAKI-1 renal.
Assay [2] relates to COLO 205 colon.
The test system of assay [3] is HCT-15 colon.
Assay [4] relates to MDA-MB-231 breast.
In assay [5] the test system is MDA-N.
Assay [6] relates to PC-3 prostate.
The subject of assay [7] is SF-295 CNS.
For assay [8], the system named is SK-MEL-5 melanoma.
Assay [9] concerns SNB-75 CNS.
Assay [10] deals with T-47D breast.

14 compounds from PubChem BioAssay (NCI) can be followed below.

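The compound was tested at five concentrations on cells cultured in 96-well plates, with a 48-hour exposure period. TGI: total growth inhibition.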

Take `C/C(=C\c1ccccc1)C(=O)NCc1ccc(C(=O)NCCc2ccccc2)cc1`: the TGI in [1], in assay [2], in assay [3], in [4], in assay [5] and in [6] was above 100 µM throughout. In addition, the TGI was 98.8 µM in assay [7], above 100 µM in [8], 19.5 µM in [9] and above 100 µM in assay [10].

Regarding `CCCCCCCC(CC(=O)NC(CO)C(=O)NC(CO)CC(C)C)OC(=O)CC(CCCCCCC)OC(=O)CC(CCCCCCC)OC1OC(C)C(O)C(OC2OC(C)C(O)C(O)C2OC(C)=O)C1O` (configuration not stated), the TGI stood at 28.3 µM in assay [1]; 5.47 µM in [2]; 21.5 µM in assay [4]; 16 µM in assay [5]; 15.8 µM in assay [6]; 21.7 µM in assay [7]. The results for the TGI in assay [8], in assay [9] and in assay [10] were 21.7 µM, 17.6 µM and 21 µM, respectively.

As to `CC1=NN(C(=O)CC(=O)Nc2ccccc2Cl)C(=O)C1N=Nc1ccc(S(=O)(=O)c2ccc(N=NC3C(=O)N(C(=O)CC(=O)Nc4ccccc4Cl)N=C3C)cc2)cc1` (configuration not stated), the TGI in assay [1], in [2], in assay [3], in assay [4], in assay [5] and in [6] was above 100 µM in each case. Moreover, the TGI in assay [7], in [8], in [9] and in assay [10] was above 100 µM in each case.

As for `C(=N\Nc1ccc(-c2nc3ccccc3[nH]2)cc1)/c1c(-c2ccc(Cc3ccccc3)cc2)[nH]c2ccccc12`, the TGI in assay [1] is above 59.8 µM; in assay [2], 19.8 µM; in [3], above 100 µM; in assay [4], 60.6 µM; in assay [5] it was above 24.5 µM; in [6] it was 39.2 µM. Moreover, the TGI in assay [7] was 27.9 µM; in assay [8], above 52.8 µM; in [9], 41.2 µM; in assay [10], 98.4 µM.

In the case of `CSc1c(C#N)c(N)nc2c(N=Nc3ccc(Br)cc3)c(N)nn12`, the TGI in [1] was found to be 26 µM; in assay [2], 25.1 µM; in assay [3], 12 µM; in assay [4] it was 15.9 µM; in assay [5], 18.8 µM; in assay [6], 23.5 µM. Besides, the TGI in [7] was determined as 25.3 µM; in [8], 40.2 µM; in assay [9] it was 28.8 µM; in [10], 4.74 µM.

As for `C=CCc1cc(-c2cc(CC=C)c(O)c(CN(CC)CC)c2)cc(CN(CC)CC)c1O`, the TGI in assay [1] is above 100 µM; in assay [2] it was above 82.2 µM; in assay [3], 51.7 µM; in [4], above 87.7 µM; in [5], above 73.5 µM; in assay [6] it was above 100 µM. Moreover, the TGI is above 88 µM in assay [7], 25.9 µM in assay [8], above 100 µM in [9] and above 100 µM in assay [10].

For the compound `O=c1oc2ccc([N+](=O)[O-])cc2c(Nc2ccc3c(c2)Sc2ccccc2O3)c1[N+](=O)[O-]`, the TGI in assay [1] was 50.6 µM; in [2], 34.8 µM; in assay [3], 35 µM; in assay [4] it was 38.8 µM; in [5] it was 88.8 µM; in assay [6] it was 40.8 µM. Also, the TGI in assay [7] is 94.3 µM; in assay [8], 41.1 µM; in assay [9], 79 µM; in assay [10], above 100 µM.

For the compound `COc1cc(C2c3cc4c(cc3OC(Nc3ccccc3)C2C)OCO4)cc(OC)c1O` (configuration not stated), the TGI in assay [1] is above 100 µM; in [2] it was 33.5 µM; in assay [3], 17.5 µM; in assay [4] it was 19.3 µM; in assay [5], 3.01 µM; in [6], 13.4 µM. The TGI in assay [7] is 15.6 µM; in assay [8] it was 10.7 µM; in assay [9], 7.35 µM; in assay [10], above 100 µM.

For `C=CC(OC(C)=O)c1ccc(OC(=O)C(C)C)c(OC)c1` (configuration not stated), the TGI in assay [1] is 3.65 µM; in assay [2] it was 7.65 µM; in assay [3] it was 20 µM; in assay [4] it was 18.4 µM; in assay [5] it was 16.8 µM; in [6], 19.3 µM. In addition, the TGI in assay [7] was 24.7 µM; in assay [8], 30.1 µM; in assay [9], 13 µM; in assay [10], 21.9 µM.

With `O=c1cc(NNc2cccc(F)c2)[nH]c(=O)[nH]1`, the TGI in assay [1] is 29.9 µM; in assay [2], above 100 µM; in [3], 30.9 µM; in assay [4] it was 30.4 µM; in [5], above 100 µM; in [6] it was above 100 µM. Besides, the TGI in [7] was above 100 µM; in assay [8] it was above 100 µM; in assay [9], above 100 µM; in assay [10], 31.7 µM.

Consider `CCOC(=O)c1cc(I)c(-c2cc(C)no2)n1C`, for which the TGI is 54.7 µM in assay [1]; above 100 µM in assay [2]; above 100 µM in assay [3]; above 100 µM in assay [4]; above 100 µM in assay [5]; above 100 µM in assay [6]. Further, the TGI in [7], in [8], in assay [9] and in [10] was above 100 µM in each case.

In the case of `O=C1Nc2ccccc2Cn2c1cc1oc(-c3ccccc3)cc12`, the TGI in assay [1] was above 100 µM; in assay [2] it was above 100 µM; in assay [3] it was above 100 µM; in [4] it was 87.2 µM; in assay [5], above 100 µM; in assay [6], above 100 µM. Also, the TGI in assay [7] was 63.3 µM; in assay [8] it was above 100 µM; in [9], 64.2 µM; in assay [10], 92.6 µM.

`O=C(CCCCCCCCC(=O)N1C(=O)CC(=O)N(c2ccccc2)C1=S)N1C(=O)CC(=O)N(c2ccccc2)C1=S`: the TGI in assay [1], in assay [2], in assay [3], in assay [4], in assay [5] and in [6] was above 100 µM each time. The TGI in [7], in [8], in assay [9] and in assay [10] was above 100 µM throughout.

Consider `COC(=O)CCc1ccc2c(c1)C(=O)CC2`, for which the TGI in [3], in assay [4], in [5], in assay [6], in [7] and in assay [8] was above 100 µM throughout. Further, the values for the TGI in assay [9] and in assay [10] were 99.9 µM and above 100 µM, respectively.
